Measured values taken from US9499535B2, “Kinase inhibitors” (ORIGENIS GMBH, priority 2011, dated 2016).

Columns and labels:
SYK kinase = biological target: T1, SYK kinase (Homo sapiens, UniProt P43405); test: SYK assay (OMNIA Kinase Assay, Invitrogen); type: biochemical; details: apparent Ki calculated from the IC50 using the Cheng-Prusoff equation; 1 mM ATP, 10 μM Peptide Substrate; read-out: SYK Activities: Ki
T1 construct: purchased Invitrogen, Carlsbad
Protocol: In the assay OMNIA® KINASE ASSAY by Invitrogen Corporation (Carlsbad) the effect of invention of a compound on the phosphorylation is determined by measurement of fluorescence intensity of a chelation-enhanced fluorophore called SOX. Upon phosphorylation of the peptide by the kinase of interest, Mg2+ is chelated to form a bridge between the SOX moiety and the phosphate group that is transferred to the specific tyrosine on the peptide. The fluorescence intensity is directly proportional to the amount of peptide phosphorylation.
To the wells of an 384 well small volume plate (Greiner, Frickenhausen) are added (i) the compound under test in 5% DMSO/distilled water (2 μl), (ii) 16 μl of the master mix containing ATP, DTT, Kinase Reaction Buffer, Omina Peptide Substrate Tyr 7 resulting in a final concentration of 1 mM ATP, 0.2 mM DTT and 10 μM Peptide Substrate.
The Master Mix and the assay plate was incubated to reaction temperature before the measurement (30° C.). The reaction was started with addition of (iii) 2 μl 4 μg/ml SYK kinase (Invitrogen, Carlsbad). During measurement fluorescence intensitiy readings were collected using a TECAN M1000 at a wavelength of λex 360/λem 485 nm every 30 s for 30 minutes. The reaction velocity was plotted versus the inhibitor concentration to determine the IC50 using XLFit 5.0 (IDBS, Guildford) to fit to a sigmoidal dose response curve, and the apparent Ki values were calculated from the IC50 using the Cheng-Prusoff equation (Cheng, Y.; Prusoff, W. H. Biochem. Pharmacol. 22, 3099-3108, 1973).

LRRK2 = LRRK2 (Homo sapiens, UniProt Q5S007); test: LRRK2 assay (LanthaScreen Eu Kinase Binding Assay); details: 5 nM LRRK2, 10 nM tracer 236, RT 1 h; read-out: LRRK2 Activites: IC50
Excerpt: Binding of the tracer to the kinase is detected using a europium-labeled anti-tag antibody, which binds to the kinase of interest. […] Binding of an inhibitor to the kinase competes for binding with the tracer, resulting in a loss of FRET. The fluorescence intensity ratio is directly proportional to the amount of peptide phosphorylation.
The inhibitor concentration was plotted versus the emission ratio to determine the IC50 using XLFit 5.0 (IDBS, Guildford) to fit to a sigmoidal dose response curve with a variable slope.

Chain of LRRK2 (Q5S007 970-2527 limits assumed): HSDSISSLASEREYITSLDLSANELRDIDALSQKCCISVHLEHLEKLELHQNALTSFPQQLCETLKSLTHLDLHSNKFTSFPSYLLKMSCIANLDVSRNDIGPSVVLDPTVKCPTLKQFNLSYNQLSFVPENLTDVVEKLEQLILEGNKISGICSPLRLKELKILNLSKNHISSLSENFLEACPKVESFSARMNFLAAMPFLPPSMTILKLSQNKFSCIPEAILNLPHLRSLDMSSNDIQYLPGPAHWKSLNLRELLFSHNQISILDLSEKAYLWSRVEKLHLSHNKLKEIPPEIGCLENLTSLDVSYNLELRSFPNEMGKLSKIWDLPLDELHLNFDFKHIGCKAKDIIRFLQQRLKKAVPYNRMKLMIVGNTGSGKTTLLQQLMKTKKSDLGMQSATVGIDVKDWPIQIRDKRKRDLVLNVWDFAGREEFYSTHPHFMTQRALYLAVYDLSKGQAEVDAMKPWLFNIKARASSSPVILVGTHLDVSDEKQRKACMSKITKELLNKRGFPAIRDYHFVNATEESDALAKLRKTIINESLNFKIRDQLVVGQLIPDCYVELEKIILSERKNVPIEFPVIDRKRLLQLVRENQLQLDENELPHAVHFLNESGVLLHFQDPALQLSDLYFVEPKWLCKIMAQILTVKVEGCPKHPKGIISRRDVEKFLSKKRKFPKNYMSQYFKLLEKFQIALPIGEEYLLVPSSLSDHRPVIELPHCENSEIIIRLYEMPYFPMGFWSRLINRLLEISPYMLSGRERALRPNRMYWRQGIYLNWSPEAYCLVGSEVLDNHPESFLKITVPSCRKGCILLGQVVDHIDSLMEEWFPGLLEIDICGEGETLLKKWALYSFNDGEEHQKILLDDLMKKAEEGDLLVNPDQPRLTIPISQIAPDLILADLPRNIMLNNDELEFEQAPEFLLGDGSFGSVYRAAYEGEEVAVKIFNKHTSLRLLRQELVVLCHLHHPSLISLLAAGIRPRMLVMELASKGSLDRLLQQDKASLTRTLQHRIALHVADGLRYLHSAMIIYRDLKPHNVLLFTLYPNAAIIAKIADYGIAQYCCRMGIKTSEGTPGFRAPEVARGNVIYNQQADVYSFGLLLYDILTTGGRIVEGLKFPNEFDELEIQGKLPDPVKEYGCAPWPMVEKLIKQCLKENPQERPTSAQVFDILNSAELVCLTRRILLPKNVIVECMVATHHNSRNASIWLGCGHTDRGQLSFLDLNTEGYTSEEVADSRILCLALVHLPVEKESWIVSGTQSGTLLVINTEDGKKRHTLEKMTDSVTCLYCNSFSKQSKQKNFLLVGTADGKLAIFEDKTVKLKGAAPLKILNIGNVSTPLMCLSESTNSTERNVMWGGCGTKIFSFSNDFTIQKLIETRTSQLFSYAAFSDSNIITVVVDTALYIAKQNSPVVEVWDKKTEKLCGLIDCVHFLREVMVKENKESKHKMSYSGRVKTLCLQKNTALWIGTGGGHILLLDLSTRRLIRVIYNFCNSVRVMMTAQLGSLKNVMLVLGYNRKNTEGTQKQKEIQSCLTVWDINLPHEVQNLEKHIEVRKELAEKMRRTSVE

Row | SMILES | Ki (SYK kinase) [nM] | IC50 (LRRK2) [nM]
1 | COc1ccc2nc(Nc3ccc(N4CCCC4=O)cc3)c3[nH]ncc3c2c1 [Example #106] | 100 to 1000 | 100 to 1000
2 | COc1ccc2nc(Nc3ccc(N4CCS(=O)(=O)CC4)cc3)c3n[nH]cc3c2c1 [Example #111, [4-(1,1-Dioxo-1lambda-6-thiomorpholin-4-yl)-phenyl]-(8-methoxy-3H-pyrazolo[3,4-c]quinolin-4-yl)-amine] | 10 to 100 | 10 to 100
3 | COc1ccc2nc(Nc3ccc(CC(=O)O)cc3)c3n[nH]cc3c2c1 [Example #285, 2-(4-((8-methoxy-2H-pyrazolo[3,4-c]quinolin-4-yl)amino)phenyl)acetic acid] | 100 to 1000 | 100 to 1000
4 | COc1cccc2c1nc(Nc1ccc(N3CCOCC3)cc1)c1[nH]ncc12 [Example #170, (6-Methoxy-2H-pyrazolo[3,4-c]quinolin-4-yl)-(4-morpholin-4-yl-phenyl)-amine] | 10 to 100 | 100 to 1000
5 | COc1ccc2nc(Nc3ccc4c(c3)N=C(NCCc3ccccc3)CO4)c3n[nH]cc3c2c1 [Example #314, N6-(8-methoxy-2H-pyrazolo[3,4-c]quinolin-4-yl)-N3-phenethyl-2H-benzo[b][1,4]oxazine-3,6-diamine] | 10 to 100 | 10 to 100
6 | COc1ccc2nc(Nc3cccc(N4CCOCC4)c3)c3[nH]ncc3c2c1 [Example #81, (8-Methoxy-3H-pyrazolo[3,4-c]quinolin-4-yl)-(3-morpholin-4-yl-phenyl)-amine] | 100 to 1000 | 100 to 1000
7 | COc1ccc2nc(Nc3ccc(C)cc3)c3n[nH]cc3c2c1 [Example #244, (8-Methoxy-2H-pyrazolo[3,4-c]quinolin-4-yl)-p-tolyl-amine] | 10 to 100 | 100 to 1000
8 | COc1cc2nc(Nc3ccc(N(C)C)cc3)c3n[nH]cc3c2cc1OC [Example #135, N-(7,8-Dimethoxy-2H-pyrazolo[3,4-c]quinolin-4-yl)-N′,N′-dimethyl-benzene-1,4-diamine] | 10 to 100 | 100 to 1000
9 | COc1ccc2nc(Nc3ccc4c(c3)OCCO4)c3n[nH]cc3c2c1 [Example #101, (2,3-Dihydro-benzo[1,4]dioxin-6-yl)-(8-methoxy-2H-pyrazolo[3,4-c]quinolin-4-yl)-amine] | 10 to 100 | 100 to 1000
10 | COc1ccc2nc(Nc3ccc(N4CCSCC4)cc3)c3[nH]ncc3c2c1 [Example #293, 8-methoxy-N-(4-thiomorpholinophenyl)-2H-pyrazolo[3,4-c]quinolin-4-amine] | < 10 | 10 to 100
11 | COc1cc(Nc2nc3ccccc3c3c[nH]nc23)cc(OC)c1OC [Example #3, (2H-Pyrazolo[3,4-c]quinolin-4-yl)-(3,4,5-trimethoxy-phenyl)-amine] | 100 to 1000 | 100 to 1000
12 | COc1ccc2nc(Nc3ccc4c(c3)NCC(C)(C)S4)c3n[nH]cc3c2c1 [Example #88, (2,2-Dimethyl-3,4-dihydro-2H-benzo[1,4]thiazin-6-yl)-(8-methoxy-2H-pyrazolo[3,4-c]quinolin-4-yl)-amine] | 10 to 100 | < 10
13 | CN1CCN(C2CCN(c3ccc(Nc4nc5cccc(F)c5c5cn[nH]c45)cc3)CC2)CC1 [Example #363, 9-fluoro-N-(4-(4-(4-methylpiperazin-1-yl)piperidin-1-yl)phenyl)-3H-pyrazolo[3,4-c]quinolin-4-amine] | 10 to 100 | 10 to 100
14 | COc1ccc2nc(Nc3cccc(S(=O)(=O)CCO)c3)c3n[nH]cc3c2c1 [Example #351, 2-((3-((8-methoxy-2H-pyrazolo[3,4-c]quinolin-4-yl)amino)phenyl)sulfonyl)ethan-1-ol] | 100 to 1000 | 100 to 1000
15 | COc1ccc2nc(Nc3cc(F)c(F)c(F)c3)c3n[nH]cc3c2c1 [Example #317, 8-methoxy-N-(3,4,5-trifluorophenyl)-2H-pyrazolo[3,4-c]quinolin-4-amine] | 10 to 100 | 100 to 1000
16 | COc1ccc2nc(Nc3cc(C(C)(C)C)[nH]n3)c3[nH]ncc3c2c1 [Example #95, (5-tert-Butyl-1H-pyrazol-3-yl)-(8-methoxy-3H-pyrazolo[3,4-c]quinolin-4-yl)-amine] | 10 to 100 | 10 to 100
17 | COc1ccc2nc(Nc3ccc(NC(=O)C(F)(F)F)cc3)c3n[nH]cc3c2c1 [Example #312, 2,2,2-trifluoro-N-(4-((8-methoxy-2H-pyrazolo[3,4-c]quinolin-4-yl)amino)phenyl)acetamide] | 100 to 1000 | 100 to 1000

Row | SMILES | Ki (SYK kinase) [nM] | IC50 (LRRK2) [nM]
18 | COc1ccc2nc(Nc3ccc4c(c3)NC(=O)CO4)c3[nH]ncc3c2c1 [Example #47, 6-(8-Methoxy-3H-pyrazolo[3,4-c]quinolin-4-ylamino)-4H-benzo[1,4]oxazin-3-one] | – | 10 to 100
19 | COc1ccc2nc(Nc3ccc(N4CCOCC4)c(OC)c3)c3n[nH]cc3c2c1 [Example #319, 8-methoxy-N-(3-methoxy-4-morpholinophenyl)-2H-pyrazolo[3,4-c]quinolin-4-amine] | 10 to 100 | 100 to 1000
20 | COc1ccc2nc(Nc3ccc(N4CCOCC4)c(F)c3)c3n[nH]cc3c2c1 [Example #181, (3-Fluoro-4-morpholin-4-yl-phenyl)-(8-methoxy-2H-pyrazolo[3,4-c]quinolin-4-yl)-amine] | 10 to 100 | 100 to 1000
21 | COc1ccc2nc(Nc3ccc4cnn(C)c4c3)c3n[nH]cc3c2c1 [Example #40, (8-Methoxy-2H-pyrazolo[3,4-c]quinolin-4-yl)-(1-methyl-1H-indazol-6-yl)-amine] | < 10 | 100 to 1000
22 | COc1ccc2nc(Nc3ccc(N4CCCCC4)cc3)c3n[nH]cc3c2c1 [Example #50, (8-Methoxy-2H-pyrazolo[3,4-c]quinolin-4-yl)-(4-piperidin-1-yl-phenyl)-amine] | 10 to 100 | 100 to 1000
23 | COc1ccc2nc(Nc3ccc4oc(=O)[nH]c4c3)c3[nH]ncc3c2c1 [Example #108, 5-(8-Methoxy-3H-pyrazolo[3,4-c]quinolin-4-ylamino)-3H-benzooxazol-2-one] | 100 to 1000 | 100 to 1000
24 | COc1ccc2nc(Nc3ccc4c(c3)n(C)c(=O)n4C)c3n[nH]cc3c2c1 [Example #189, 5-(8-Methoxy-2H-pyrazolo[3,4-c]quinolin-4-ylamino)-1,3-dimethyl-1,3-dihydro-benzoimidazol-2-one] | 10 to 100 | 100 to 1000
25 | COc1cc2nc(Nc3ccc4c(c3)NCCO4)c3n[nH]cc3c2cc1OC [Example #151, (3,4-Dihydro-2H-benzo[1,4]oxazin-6-yl)-(7,8-dimethoxy-2H-pyrazolo[3,4-c]quinolin-4-yl)-amine] | 10 to 100 | 100 to 1000
26 | O=C1COc2ccc(Nc3nc4ccccc4c4cn[nH]c34)cc2N1 [Example #46, 6-(3H-Pyrazolo[3,4-c]quinolin-4-ylamino)-4H-benzo[1,4]oxazin-3-one] | 10 to 100 | 100 to 1000
27 | COc1ccc2nc(Nc3ccc(N4CCSCC4)cc3)c3[nH]ncc3c2c1 [Example #107, (8-Methoxy-3H-pyrazolo[3,4-c]quinolin-4-yl)-(4-thiomorpholin-4-yl-phenyl)-amine] | 10 to 100 | 100 to 1000
28 | COc1ccc2nc(Nc3cccc(O)c3)c3[nH]ncc3c2c1 [Example #113, 3-(8-Methoxy-3H-pyrazolo[3,4-c]quinolin-4-ylamino)-phenol] | 10 to 100 | 100 to 1000
29 | COc1ccc2nc(Nc3ccc(N4CCOCC4)nc3)c3[nH]ncc3c2c1 [Example #103, (8-Methoxy-3H-pyrazolo[3,4-c]quinolin-4-yl)-(6-morpholin-4-yl-pyridin-3-yl)-amine] | 10 to 100 | 100 to 1000
30 | COc1ccc2nc(Nc3ccc(OC)c(F)c3)c3n[nH]cc3c2c1 [Example #125, (3-Fluoro-4-methoxy-phenyl)-(8-methoxy-2H-pyrazolo[3,4-c]quinolin-4-yl)-amine] | 10 to 100 | 100 to 1000
31 | COc1ccc(CCNC(=O)Cc2ccc(Nc3nc4ccc(OC)cc4c4c[nH]nc34)cc2)cc1 [Example #215] | – | 100 to 1000
32 | Fc1cc(Nc2nc3cccc(F)c3c3cn[nH]c23)ccc1N1CCOCC1 [Example #364, 9-fluoro-N-(3-fluoro-4-morpholinophenyl)-3H-pyrazolo[3,4-c]quinolin-4-amine] | – | 100 to 1000
33 | COc1ccc2nc(Nc3ccc4c[nH]nc4c3)c3n[nH]cc3c2c1 [Example #15, (2H-Indazol-6-yl)-(8-methoxy-2H-pyrazolo[3,4-c]quinolin-4-yl)-amine] | – | 100 to 1000
34 | COc1ccc2nc(Nc3ccc(C(C)=O)cc3)c3n[nH]cc3c2c1 [Example #145, 1-[4-(8-Methoxy-2H-pyrazolo[3,4-c]quinolin-4-ylamino)-phenyl]-ethanone] | – | 100 to 1000
